A short description of data set [1]: Stability in simulated intestinal juice (FeSSIF). Format: in vitro ADME. To be noted: FeSSIF pH 5.0, pancreatin 1%. The method, then:
(§1) To avoid direct interaction between the active drug and the gut microfloral population, the prodrug should not undergo premature chemical or enzymic cleavage back to the parent dug while within the gut lumen. To confirm this the prodrugs were incubated with USP SGF (simulated gastric fluid), FeSSIF (fed state simulated intestinal fluid) and FaSSIF (fasted state simulated intestinal fluid) and remaining prodrug and any generated active drug assayed by use of a qualified LC-MS/MS analytical method.
Pancreatin was again added at 1%.
(§2) To minimize the direct inhibitory action of this drug on gastric emptying/gut motility—and resultant nausea—the prodrug should not undergo premature chemical or enzymic cleavage back to the parent drug while within the gut lumen. To confirm this, the prodrugs were incubated with USP SGF (simulated gastric fluid), FeSSIF (fed state simulated intestinal fluid) and FaSSIF (fasted state simulated intestinal fluid) and remaining prodrug, and any generated active drug, assayed by use of a qualified LC-MS/MS analytical method.
(§3) To avoid direct interaction between the active drug and the gut, the prodrug should not undergo premature chemical or enzymic cleavage back to the parent dug while within the gut lumen. To confirm this the prodrugs were incubated with USP SGF (simulated gastric fluid), FeSSIF (fed state simulated intestinal fluid) and FaSSIF (fasted state simulated intestinal fluid) and remaining prodrug and any generated active drug assayed by use of a qualified LC-MS/MS analytical method.

Data set [2] can be described thus: Stability in simulated intestinal juice (FaSSIF). The data set is classed as in vitro ADME. To be noted: FaSSIF pH 6.5, pancreatin 1%, prodrug 20 μg/mL. The procedure: as §1
Method—Prodrug (20 μg/mL) in the FaSSIF cocktail comprising sodium taurocholate 3 mM, lecithin 0.75 mM, NaOH 8.7 mM, NaH2PO4. H2O 28.7 mM, NaCl 106 mM, pancreatin 1% (overall pH 6.5) was incubated for 2 h at 37° C. After acidifying the incubation to stop any reaction the amount of prodrug remaining and drug generated were determined using a qualified LC-MS/MS method.
as §2
Prodrug (20 μg/mL) in the FaSSIF cocktail comprising sodium taurocholate 3 mM, lecithin 0.75 mM, NaOH 8.7 mM, NaH2PO4. H2O 28.7 mM, NaCl 106 mM, pancreatin 1% (overall pH 6.5) was incubated for 2 h at 37° C. After acidifying the incubation to stop any reaction the amount of prodrug remaining and drug generated were determined using a qualified LC-MS/MS method.
as §3

For data set [3] the following is noted: male rats; for Frel: relative bioavailability of donepezil vs dosing donepezil itself, mean. The procedure:
Serial tail vein blood samples were subsequently collected via an indwelling cannuala into EDTA tubes containing a stabilising cocktail (including 6 mg/mL NaF) to prevent post collection enzymic hydrolysis of the prodrug.

The nature of data set [4]: Stability in USP simulated gastric juice. The data set is classed as in vitro ADME. The note with it: USP SGF pH 1.1, pepsin […], prodrug 20 μg/mL. The text has this: To minimize the direct inhibitory action of this drug on gastric emptying/gut motility—and resultant nausea—the prodrug should not undergo premature chemical or enzymic cleavage back to the parent drug while within the gut lumen.

Data set [5] addresses T1, hNav1.1 channel (Homo sapiens, UniProt P35498).
T1 construct: expressed in transfected cells
Description: Blockade of cloned Nav1.1 channels expressed in mammalian cells. The data set is classed as cell-based. The procedure:
Blockade of hNav1.1 channel was measured using a stimulus voltage pattern shown in the diagram below: Voltage potentials are indicated in Table 13. The pulse pattern was repeated twice: before and 5 minutes after TA addition and peak current amplitudes at three test pulses were measured (ITP1, TP11 and ITP12).
Data acquisition and analyses was performed using the lonWorks Quattro™ system operation software (version 2.0.2; Molecular Devices Corporation, Union City, Calif.). Data was corrected for leak current.
The tonic block was calculated as:
% Block (Tonic)=(1−ITP1,TA/ITP1,Control)×100%,
10 Hz Block—the frequency-dependent block at stimulation frequency 10 Hz was calculated as:
% Block (10 Hz)=(1−ITP11, TA/ITP11, Control))×100%,
We define the inactivation state block as decrease in test pulse (TP12) current amplitude due to the conditioning depolarizing pulse (TP11). The inactivation state block was calculated as:
% Block (inactivation state)=(1−(ITP12, TA/[…])×100%,
Concentration-response data for the blocks were fit to an equation of the following form: […]
where [Test] is the concentration of test article, IC50 is the concentration of the test article producing half-maximal inhibition, N is the Hill coefficient, and % Block is the percentage of ion channel current inhibited at each concentration of the test article. Nonlinear least squares fits were solved with the Solver add-in for Excel 2000 (Microsoft, Redmond, Wash.).

The conditions of data set [6]: % of treated patients, cited from earlier work.
The mark [7] stands for this setting: frequency-dependent block at 10 Hz (TP11), read-out: IC50 10 Hz block.
[8] abbreviates: inactivation state block (TP12), read-out: IC50 Inactivated state.
The mark [9] stands for this setting: tonic block (TP1), read-out: IC50 Tonic block.

As usually defined, the IC50 is the midpoint of a concentration-inhibition curve.

Where two headings read alike, the source gives them in different places. Some results are limits rather than exact numbers.

As to `CCOC(=O)c1ccc(NC(=O)CCCC(=O)OC2=C(CC3CCN(Cc4ccccc4)CC3)Cc3cc(OC)c(OC)cc32)cc1` [Donepezil glutaryl PABA ethyl ester, donepezil[glutaryl-PABA ethyl ester]enol ester], in data set [1], the “Simulated intestinal juice (2 h, 37° C.) (FeSSIF) % active drug generated” value is recorded as 1%. Also, in data set [2], the “Simulated intestinal juice (2 h, 37° C.) (FaSSIF) % active drug generated” value is on record as 2%. Moreover, the Prodrug plasma levels result in data set [3] (oral) is listed as “undetectable”. For the same molecule, in data set [3], the Frel was found to be 30%. Further, the “Simulated gastric juice (1 h, 37° C.) % active drug generated” value in data set [4] is 2%.
Consider `CCOC(=O)[C@@H](NC(=O)CCCC(=O)OC1=C(CC2CCN(Cc3ccccc3)CC2)Cc2cc(OC)c(OC)cc21)C(C)C` [Donepezil glutaryl valine ethyl ester, donepezil[glutaryl-(S)-valineethyl ester]enol ester], for which the “Simulated intestinal juice (2 h, 37° C.) (FeSSIF) % active drug generated” value in data set [1] is recorded as 3%. Moreover, the “Simulated intestinal juice (2 h, 37° C.) (FaSSIF) % active drug generated” value in data set [2] was 11%. Besides, the “plasma persistence of donepezil” value in data set [3] (oral) is on record as “not in evidence”. For the same molecule, the Frel in data set [3] is recorded as 31%. For the same molecule, the “Simulated gastric juice (1 h, 37° C.) % active drug generated” value in data set [4] is listed as 2%.
With `CCCNCC(COc1ccccc1C(=O)CCc1ccccc1)OC(=O)CCCC(=O)Nc1ccc(C(=O)O)cc1` (centres unmarked) [Propafenone glutaryl PABA ester, Propafenone (glutaryl-PABA) ester], the IC50 in data set [5] (setting [7]) stood at 96.3 µM; in data set [5] (setting [8]), 32.2 µM; in data set [5] (setting [9]), 464 µM.
The corresponding values for `CCCNCC(COc1ccccc1C(=O)CCc1ccccc1)OC(=O)CCC(=O)N[C@H](C(=O)O)C(C)C` (stereo partly drawn) [Propafenone succinyl valine ester, Propafenone[succinyl-(S)-valine]ester] are 69.5 µM, 37.2 µM and 151 µM.
For the molecule `Cc1cn([C@H]2C=C[C@@H](CO)O2)c(=O)[nH]c1=O` [Stavudine], in data set [6], the incidence of diarrhoea is 44%; the “incidence of nausea and vomiting” value is on record as 39-44%.
As to `CC(C)CN(C[C@@H](O)[C@H](Cc1ccccc1)NC(=O)O[C@H]1CCOC1)S(=O)(=O)c1ccc(N)cc1` [amprenavir], in data set [6], the incidence of diarrhoea is 39%, the incidence of nausea is 74% and the incidence of vomiting was 34%.
As to `C#Cc1cccc(Nc2ncnc3cc(OCCOC)c(OCCOC)cc23)c1` [erlotinib], the incidence of diarrhoea in data set [6] is listed as 50-60%.
For `CCCCN1C[C@H](O)[C@@H](O)[C@H](O)[C@H]1CO` [miglustat], the incidence of diarrhoea result in data set [6] is reported as “up to 89%”.
For `Cc1ccc(Nc2nccc(N(C)c3ccc4c(C)n(C)nc4c3)n2)cc1S(N)(=O)=O` [pazopanib], the incidence of diarrhoea in data set [6] is on record as about 50%; in data set [6] (listed as pazapanib) it was over 50%.
In the case of `COc1ccc(C(CN(C)C)C2(O)CCCCC2)cc1` (centres unmarked) [venlefaxine, venlafaxine], the incidence of nausea entry in data set [6] was “Up to 30%”.

Values taken from patent US20120202756A1, “USE OF PRODRUGS TO AVOID GI MEDIATED ADVERSE EVENTS” (priority 2009, published 2012).
